pEC50: −log10 of the molar value.
Biological target: T1, human VDR (Homo sapiens, UniProt P11473)
T1 sequence (P11473 1-427): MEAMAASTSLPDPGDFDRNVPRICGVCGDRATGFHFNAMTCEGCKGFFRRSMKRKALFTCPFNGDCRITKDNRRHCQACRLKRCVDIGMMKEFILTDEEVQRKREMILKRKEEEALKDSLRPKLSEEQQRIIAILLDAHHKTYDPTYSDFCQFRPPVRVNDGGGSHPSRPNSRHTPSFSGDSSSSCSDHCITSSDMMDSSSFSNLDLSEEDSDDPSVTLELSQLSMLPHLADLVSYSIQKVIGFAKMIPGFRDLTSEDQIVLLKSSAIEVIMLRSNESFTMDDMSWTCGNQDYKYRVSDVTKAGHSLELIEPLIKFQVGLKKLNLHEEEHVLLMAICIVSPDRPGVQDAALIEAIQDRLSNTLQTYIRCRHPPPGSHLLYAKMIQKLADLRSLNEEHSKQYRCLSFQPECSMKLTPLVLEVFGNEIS
T1 sequence (P19793 1-462 partner): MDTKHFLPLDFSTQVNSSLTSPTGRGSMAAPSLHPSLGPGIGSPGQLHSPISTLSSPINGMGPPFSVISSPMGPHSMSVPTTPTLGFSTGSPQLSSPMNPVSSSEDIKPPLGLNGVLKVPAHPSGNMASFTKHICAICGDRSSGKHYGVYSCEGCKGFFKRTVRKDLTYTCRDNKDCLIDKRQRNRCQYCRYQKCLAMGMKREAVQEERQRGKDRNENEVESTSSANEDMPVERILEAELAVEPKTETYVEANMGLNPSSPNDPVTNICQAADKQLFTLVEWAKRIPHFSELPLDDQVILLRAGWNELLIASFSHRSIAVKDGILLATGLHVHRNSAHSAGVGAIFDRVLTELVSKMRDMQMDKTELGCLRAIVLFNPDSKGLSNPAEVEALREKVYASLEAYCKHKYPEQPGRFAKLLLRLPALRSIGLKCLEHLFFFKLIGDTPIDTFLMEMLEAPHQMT
Assay: Evaluation of VDR transcription activity in human osteoblasts (HOS cells), luciferase reporter
Details: Activity (EC50, VDR transcription activity), HOS cells transfected with human VDR, human RXRα and DR3 luciferase reporter; 21 hours

pEC50, > 9.00:
C=C1/C(=C\C=C2/CCC[C@]3(C)[C@@H]([C@H](C)CN4CC[C@H](C(C)(F)F)C4)CC[C@@H]23)C[C@@H](O)C[C@@H]1O [Compound B028, (1R,3S,Z)-5-(2-((1R,3aS,7aR,E)-1-((S)-1-((S)-3-(1,1-difluoroethyl)pyrrolidin-1-yl)propan-2-yl)-7a-methyloctahydro-4H-inden-4-ylidene)ethylidene)-4-methylenecyclohexane-1,3-diol]

pEC50, 8.00 to 9.00:
COC1(C(F)(F)F)CN(CC[C@@H](C)[C@H]2CC[C@H]3/C(=C/C=C4C[C@@H](O)C[C@H](O)C4)CCC[C@]23C)C1 [Compound A027, (1R,3R)-5-(2-((1R,3aS,7aR,E)-1-((R)-4-(3-methoxy-3-(trifluoromethyl)azetidin-1-yl)butan-2-yl)-7a-methyloctahydro-4H-inden-4-ylidene)ethylidene)cyclohexane-1,3-diol]
C=C1[C@H](O)CC(=C/C=C2\CCC[C@]3(C)[C@@H]([C@H](C)CN4CC[C@@H](C)C4)CC[C@@H]23)C[C@H]1O [Compound B003, (1R,3R)-5-(2-((1R,3aS,7aR,E)-7a-methyl-1-((S)-1-((R)-3-methylpyrrolidin-1-yl)propan-2-yl)octahydro-4H-inden-4-ylidene)ethylidene)-2-methylenecyclohexane-1,3-diol]
C=C1[C@H](O)CC(=C/C=C2\CCC[C@]3(C)[C@@H]([C@H](C)CN4CC[C@H](CC)C4)CC[C@@H]23)C[C@H]1O [Compound B005, (1R,3R)-5-(2-((1R,3aS,7aR,E)-1-((S)-1-((S)-3-ethylpyrrolidin-1-yl)propan-2-yl)-7a-methyloctahydro-4H-inden-4-ylidene)ethylidene)-2-methylenecyclohexane-1,3-diol]
C=C1[C@H](O)CC(=C/C=C2\CCC[C@]3(C)[C@@H]([C@H](C)CN4CC[C@H](C(C)(F)F)C4)CC[C@@H]23)C[C@H]1O [Compound B031, (1R,3R)-5-(2-((1R,3aS,7aR,E)-1-((S)-1-((S)-3-(1,1-difluoroethyl)pyrrolidin-1-yl)propan-2-yl)-7a-methyloctahydro-4H-inden-4-ylidene)ethylidene)-2methylenecyclohexane-1,3-diol]
C=C1/C(=C\C=C2/CCC[C@]3(C)[C@@H]([C@H](C)CN4CC[C@@H](C(C)(F)F)C4)CC[C@@H]23)C[C@@H](O)C[C@@H]1O [Compound B032, (1R,3S,Z)-5-(2-((1R,3aS,7aR,E)-1-((S)-1-((R)-3-(1,1-difluoroethyl)pyrrolidin-1-yl)propan-2-yl)-7a-methyloctahydro-4H-inden-4-ylidene)ethylidene)-4-methylenecyclohexane-1,3-diol]

pEC50, 6.00 to 7.00:
C[C@H](CCN1CC(OC(F)F)C1)[C@H]1CC[C@H]2/C(=C/C=C3C[C@@H](O)C[C@H](O)C3)CCC[C@]12C [Compound A025, (1R,3R)-5-(2-((1R,3aS,7aR,E)-1-((R)-4-(3-(difluoromethoxy)azetidin-1-yl)butan-2-yl)-7a-methyloctahydro-4H-inden-4-ylidene)ethylidene)cyclohexane-1,3-diol]
C[C@H](CCN1CC(OC(F)(F)F)C1)[C@H]1CC[C@H]2/C(=C/C=C3C[C@@H](O)C[C@H](O)C3)CCC[C@]12C [Compound A028, (1R,3R)-5-(2-((1R,3aS,7aR,E)-7a-methyl-1-((R)-4-(3-(trifluoromethoxy)azetidin-1-yl)butan-2-yl)octahydro-4H-inden-4-ylidene)ethylidene)cyclohexane-1,3-diol]
C=C1/C(=C\C=C2/CCC[C@]3(C)[C@@H]([C@@H](C)CN4CCCC4)CC[C@@H]23)C[C@@H](O)C[C@@H]1O [Compound B009, (1R,3S,Z)-5-(2-((1R,3aS,7aR,E)-7a-methyl-1-((R)-1-(pyrrolidin-1-yl)propan-2-yl)octahydro-4H-inden-4-ylidene)ethylidene)-4-methylenecyclohexane-1,3-diol]
C[C@H](CN1CC[C@H](F)C1)[C@H]1CC[C@H]2/C(=C/C=C3C[C@@H](O)C[C@H](O)C3)CCC[C@]12C [Compound B012, (1R,3R)-5-(2-((1R,3aS,7aR,E)-1-((S)-1-((S)-3-fluoropyrrolidin-1-yl)propan-2-yl)-7a-methyloctahydro-4H-inden-4-ylidene)ethylidene)cyclohexane-1,3-diol]

pEC50, 7.00 to 8.00:
C=C1[C@H](O)CC(=C/C=C2\CCC[C@]3(C)[C@@H]([C@H](C)CCN4CC(OC(F)F)C4)CC[C@@H]23)C[C@H]1O [Compound A030, (1R,3R)-5-(2-((1R,3aS,7aR,E)-1-((R)-4-(3-(difluoromethoxy)azetidin-1-yl)butan-2-yl)-7a-methyloctahydro-4H-inden-4-ylidene)ethylidene)-2-methylenecyclohexane-1,3-diol]
CC[C@@H]1CCN(C[C@@H](C)[C@H]2CC[C@H]3/C(=C/C=C4C[C@@H](O)C[C@H](O)C4)CCC[C@]23C)C1 [Compound B008, (1R,3R)-5-(2-((1R,3aS,7aR,E)-1-((S)-1-((R)-3-ethylpyrrolidin-1-yl)propan-2-yl)-7a-methyloctahydro-4H-inden-4-ylidene)ethylidene)cyclohexane-1,3-diol]
C=C1/C(=C\C=C2/CCC[C@]3(C)[C@@H]([C@@H](C)CN4CC[C@H](C)C4)CC[C@@H]23)C[C@@H](O)C[C@@H]1O [Compound B010, (1R,3S,Z)-5-(2-((1R,3aS,7aR,E)-7a-methyl-1-((R)-1-((S)-3-methylpyrrolidin-1-yl)propan-2-yl)octahydro-4H-inden-4-ylidene)ethylidene)-4-methylenecyclohexane-1,3-diol]
C=C1/C(=C\C=C2/CCC[C@]3(C)[C@@H]([C@@H](C)CN4CC[C@@H](C)C4)CC[C@@H]23)C[C@@H](O)C[C@@H]1O [Compound B011, (1R,3S,Z)-5-(2-((1R,3aS,7aR,E)-7a-methyl-1-((R)-1-((R)-3-methylpyrrolidin-1-yl)propan-2-yl)octahydro-4H-inden-4-ylidene)ethylidene)-4-methylenecyclohexane-1,3-diol]
C[C@H](CCN1CC[C@H](F)C1)[C@H]1CC[C@H]2/C(=C/C=C3C[C@@H](O)C[C@H](O)C3)CCC[C@]12C [Compound B014, (1R,3R)-5-(2-((1R,3aS,7aR,E)-1-((R)-4-((S)-3-fluoropyrrolidin-1-yl)butan-2-yl)-7a-methyloctahydro-4H-inden-4-ylidene)ethylidene)cyclohexane-1,3-diol]
C[C@H](CCN1CC[C@@H](F)C1)[C@H]1CC[C@H]2/C(=C/C=C3C[C@@H](O)C[C@H](O)C3)CCC[C@]12C [Compound B015, (1R,3R)-5-(2-((1R,3aS,7aR,E)-1-((R)-4-((R)-3-fluoropyrrolidin-1-yl)butan-2-yl)-7a-methyloctahydro-4H-inden-4-ylidene)ethylidene)cyclohexane-1,3-diol]
C[C@H](CCCN1CC[C@H](F)C1)[C@H]1CC[C@H]2/C(=C/C=C3C[C@@H](O)C[C@H](O)C3)CCC[C@]12C [Compound B016, (1R,3R)-5-(2-((1R,3aS,7aR,E)-1-((R)-5-((S)-3-fluoropyrrolidin-1-yl)pentan-2-yl)-7a-methyloctahydro-4H-inden-4-ylidene)ethylidene)cyclohexane-1,3-diol]
C[C@H](CCCN1CC[C@@H](F)C1)[C@H]1CC[C@H]2/C(=C/C=C3C[C@@H](O)C[C@H](O)C3)CCC[C@]12C [Compound B017, (1R,3R)-5-(2-((1R,3aS,7aR,E)-1-((R)-5-((R)-3-fluoropyrrolidin-1-yl)pentan-2-yl)-7a-methyloctahydro-4H-inden-4-ylidene)ethylidene)cyclohexane-1,3-diol]
C=C1/C(=C\C=C2/CCC[C@]3(C)[C@@H]([C@H](C)CN4CC[C@@H](C(F)F)C4)CC[C@@H]23)C[C@@H](O)[C@H](C)[C@@H]1O [Compound B025, (1R,2S,3 S,Z)-5-(2-((1R,3aS,7aR,E)-1-((S)-1-((R)-3-(difluoromethyl)pyrrolidin-1-yl)propan-2-yl)-7a-methyloctahydro-4H-inden-4-ylidene)ethylidene)-2-methyl-4-methylenecyclohexane-1,3-diol]
C[C@H](CN1CC[C@H](C(C)(F)F)C1)[C@H]1CC[C@H]2/C(=C/C=C3C[C@@H](O)C[C@H](O)C3)CCC[C@]12C [Compound B030, (1R,3R)-5-(2-((1R,3aS,7aR,E)-1-((S)-1-((S)-3-(1,1-difluoroethyl)pyrrolidin-1-yl)propan-2-yl)-7a-methyloctahydro-4H-inden-4-ylidene)ethylidene)cyclohexane-1,3-diol]
